IC50 data for 11 compounds are collected here from patent publication EP1377579B1 (Aventis Pharmaceuticals Inc., priority 2000, dated 2002).

For assay [1], the target named is cdk4/cyclin D1 (Homo sapiens, UniProt P11802). In words: Cyclin-dependent kinase assay, cdk4/cyclin D1. As to conditions: cyclin D1/cdk4; GST-pRb substrate, 10 µM ATP. In kind it is biochemical.
Assay [2] concerns MDA-MB-435. Put plainly: In vitro proliferation assay (MTT), MDA-MB-435. As to conditions: Homo sapiens. In kind it is cell-based, human. Summed up: (§1)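 IC50 values come from absorbance at 570 nm after MTT staining of cells grown with compound for 3 days. Seeding density was 1000 to 2500 cells/well, depending on the line.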
The subject of assay [3] is NCI-H460. Put plainly: In vitro proliferation assay (MTT), NCI-H460. The note with it: Homo sapiens. In kind it is cell-based. As to the method:
(§2) The proliferation of tumor cells can be measured using a tetrazolium salt-based assay known as the MTT (3-[4,5-Dimethylthiazol-2-yl]-2,5-diphenyltetrazolium bromide) assay. The proliferation test is performed essentially as described by Carmichael et al., Cancer Res. 47: 936-942, 1987. For the assay, the cell lines are plated onto 96 well plates at 1000 to 2500 cells/well (depending on the properties of the individual cell lines), left to attach and recover overnight. […] After 3 days, the cells are incubated with MTT dye (3-[4,5-Dimethylthiazol-2-yl]-2,5-diphenyltetrazolium bromide, Sigma # M5655, 10 mg/ml in Hank's Buffered Saline) to estimate the amount of live cells remaining vs. concentration for the test compounds. Specifically, MTT solution is added to a final concentration of […] and the plates incubated at 37 C for 2 to 4 hr. The MTT and culture medium is then removed from the cultures and 200 µl of DMSO is added to solubilize the dye from the cell layer. The absorbance at 570 nm is determined for each culture using a Spectramax plate reader (Molecular Devices).
(§3) IC50s were determined from the raw data from either the MTT or SRB assays.
(§4) All of the cell lines were obtained from American Type Tissue Collection, with the ATCC accession number in parentheticals. MCF-7 and MDA-MB-231 cells were grown in improved minimum essential medium (Biofluids) without phenol red, supplemented with 5 % fetal bovine serum, 0.01 mg/ml gentamicin and 3 mM L-glutamine. All of the other cell lines were grown in RPMI 1640 medium (Life Technologies) supplemented with 5 % fetal bovine serum, 0.01 mg/ml gentamicin and 3 mM L-glutamine TABLE 3

In assay [4] the test system is HL-60. In words: In vitro proliferation assay (MTT), HL-60. Format: cell-based. As to conditions: Homo sapiens. The procedure: as §2, §3, §4
Assay [5] concerns Jurkat. In words: In vitro proliferation assay (MTT), Jurkat. In kind it is cell-based. As to conditions: Homo sapiens, read-out: Jurkat Leuk. (IC50 µM). As to the method:
as §2, §3, §4

The test system of assay [6] is PC-3. In words: In vitro proliferation assay (MTT), PC-3. Format: cell-based, human. As to conditions: Homo sapiens. Summed up: as §1
Assay [7] has as its system Colo-205. Put plainly: In vitro proliferation assay (MTT), Colo-205. In kind it is cell-based. As to conditions: Homo sapiens. The procedure: as §2, §3
Assay [8] has as its target cdk1/cyclin B (Homo sapiens, UniProt P06493). Put plainly: Cyclin-dependent kinase assay, cdk1/cyclin B. The note with it: CDK1 IC50, nM, Histone H1, 10 µM ATP.
Assay [9] deals with cdk2/cyclin E (Homo sapiens, UniProt P24941). Put plainly: Cyclin-dependent kinase assay, cdk2/cyclin E. As to conditions: CDK2 IC50, nM, GST-pRb substrate, 10 µM ATP.
Protocol: The insect cell (Sf9) expression is optimized for each of the CDK/cyclin pairs according to the manufacturer's protocols (Life Technologies).
The viruses are added to the cells and the culture is incubated at 27°C for the desired time. The cells are harvested by centrifugation at 3000 rpm for 10 minutes. The cells are snap frozen on dry ice and stored at - 80°C.
Cell extracts are made following a standard procedure. The cell pellet is resuspended in lysis buffer (50 mM HEPES, pH 8.0, 10 mM MgCl2, 1 mM DTT, 2.5 mM EGTA, 1 mM EDTA, 10 mM β-glycerophosphate, 1 mM sodium vanadate, 1 mM sodium fluoride, 1 x Protease inhibitor cocktail). The cells are lysed using the microfluidizer (Microfluidics) for 20 minutes. Cell debris is removed by centrifugation at 100,000 x g. The cell extracts are aliquoted in 1 ml aliquots, frozen on dry ice, and stored at -80°C.
The kinase reactions are performed following a standard procedure. The enzyme and inhibitor are diluted in kinase buffer (50 mM HEPES, pH 8.0, 10 mM MgCl2, 2.5 mM EGTA, 10 mM β-glycerophosphate, 1 mM sodium vanadate, 1 mM sodium fluoride, and 1 mM DTT) and pre-incubated for 30 minutes. The cdk2 and cdk4 enzyme activities are assayed using 500 ng of the GST-pRb substrate (see description below) in the presence of 10 µM cold ATP and 1 µCi of [γ-^33P] ATP for 30 minutes at room temperature. […] The reactions are terminated by the addition of 50 µL of 10 mM cold ATP to stop the reactions. The reactions are transferred to a pre-soaked 96-well multi-screen plate containing 30 µL of 100% TCA per well. After incubation for one hour at room temperature, the plates are washed twice with 200 µl of 20% TCA, followed by 200 µl of 10% TCA and finally with 200 µl of 5% TCA. After drying the plates at room temperature, the filter plates are placed in adapter plates (Packard) and 40 µl of Microscint-O® (Packard) is added to each well.
Where [10] appears, read: MDA-MB-435, MTT assay, value (SD, n) where given, read-out: MB-435 Breast (IC50 µM).
[11] abbreviates: NCI-H460, MTT assay, value (SD, n) where given, read-out: H-460 Lung (IC50 µM).
The mark [12] stands for this setting: HL-60, MTT assay, value (SD, n) where given, read-out: HL-60 Leuk. (IC50 µM).
The mark [13] stands for this setting: MTT assay, value (SD, n) where given.
Where [14] appears, read: PC-3, MTT assay, value (SD, n) where given, read-out: PC-3 Prostate (IC50 µM).
Where [15] appears, read: COLO 205, MTT assay, value (SD, n) where given, read-out: Colo-205 Colon (IC50 µM).

Structures can show the parent of a compound that is named as a salt. Where two headings read alike, the source gives them in different places.

Sequence of cdk1/cyclin B (P06493 whole entry): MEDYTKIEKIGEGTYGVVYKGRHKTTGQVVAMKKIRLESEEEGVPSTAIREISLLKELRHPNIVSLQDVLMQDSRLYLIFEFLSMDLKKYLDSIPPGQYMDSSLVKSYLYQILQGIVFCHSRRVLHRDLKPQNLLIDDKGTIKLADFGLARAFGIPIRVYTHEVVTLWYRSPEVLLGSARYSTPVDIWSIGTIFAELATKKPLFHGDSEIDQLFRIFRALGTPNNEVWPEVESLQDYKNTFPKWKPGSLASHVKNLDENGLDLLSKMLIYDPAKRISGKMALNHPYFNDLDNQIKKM
Sequence of cdk1/cyclin B (P14635 whole entry partner): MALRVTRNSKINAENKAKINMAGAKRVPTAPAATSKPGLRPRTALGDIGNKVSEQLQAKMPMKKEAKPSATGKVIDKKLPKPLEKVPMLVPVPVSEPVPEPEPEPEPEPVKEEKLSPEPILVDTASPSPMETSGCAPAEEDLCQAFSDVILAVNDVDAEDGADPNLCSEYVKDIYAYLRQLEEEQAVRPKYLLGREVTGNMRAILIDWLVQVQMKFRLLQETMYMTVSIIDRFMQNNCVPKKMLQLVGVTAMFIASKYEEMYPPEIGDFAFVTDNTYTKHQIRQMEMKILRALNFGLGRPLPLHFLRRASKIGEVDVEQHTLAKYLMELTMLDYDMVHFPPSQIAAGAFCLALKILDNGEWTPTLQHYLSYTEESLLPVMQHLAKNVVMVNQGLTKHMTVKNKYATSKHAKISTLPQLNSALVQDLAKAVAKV
Sequence of cdk4/cyclin D1 (P11802 whole entry): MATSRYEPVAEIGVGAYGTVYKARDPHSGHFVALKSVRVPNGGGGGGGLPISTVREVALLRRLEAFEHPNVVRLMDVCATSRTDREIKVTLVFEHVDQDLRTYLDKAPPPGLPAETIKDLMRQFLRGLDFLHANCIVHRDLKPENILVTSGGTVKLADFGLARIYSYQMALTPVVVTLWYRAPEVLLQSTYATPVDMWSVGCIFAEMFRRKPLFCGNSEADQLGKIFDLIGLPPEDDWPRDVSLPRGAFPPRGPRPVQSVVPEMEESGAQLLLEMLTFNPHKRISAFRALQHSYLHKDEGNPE
Sequence of cdk4/cyclin D1 (P24385 whole entry partner): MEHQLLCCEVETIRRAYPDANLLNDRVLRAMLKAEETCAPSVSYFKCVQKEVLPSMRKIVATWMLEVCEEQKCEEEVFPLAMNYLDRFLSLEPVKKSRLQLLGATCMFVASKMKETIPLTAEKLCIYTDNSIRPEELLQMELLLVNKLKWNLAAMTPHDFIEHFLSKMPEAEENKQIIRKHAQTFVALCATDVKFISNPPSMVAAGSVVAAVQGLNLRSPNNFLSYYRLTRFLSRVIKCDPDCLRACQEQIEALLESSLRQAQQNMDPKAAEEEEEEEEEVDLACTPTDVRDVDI

Turning to `N[C@H]1CC[C@H](Nc2nc(NC3CCN(C(=O)NC45CC6CC(CC(C6)C4)C5)CC3)c3ncn(C4CCCC4)c3n2)CC1` (relative stereo) [compound 181, trans-4-[2-(4-Amino-cyclohexylamino)-9-cyclopentyl-9H-purin-6-ylamino]-piperidine-1-carboxylic acid adamantan-1-ylamide dihydrochloride], the IC50 (as a rule, the midpoint of a concentration-inhibition curve) in assay [1] was found to be 1300 nM; in assay [2] (setting [10]) it was 0.24 µM; in assay [3] (setting [11]) it was 0.29 µM; in assay [4] (setting [12]) it was 0.06 µM; in assay [5] (setting [13]) it was 0.33 µM; in [6] (setting [14]) it was 0.25 µM. In addition, the half-inhibitory concentration (IC50) in assay [7] (setting [15]) amounted to 0.04 µM; in assay [8], 67 nM; in [9], 548 nM.
As to `CCCCOC(=O)N1CCC(Nc2nc(N[C@H]3CC[C@H](N)CC3)nc3c2ncn3C2CCCC2)CC1` [compound 92, trans-4-[2-(4-Amino-cyclohexylamino)-9-cyclopentyl-9H-purin-6-ylamino]-piperidine-1-carboxylic acid butyl ester dihydrochloride], the IC50 in assay [1] stood at 2100 nM; in assay [2] (setting [10]), 0.33 µM; in assay [3] (setting [11]) it was 0.2 µM; in [4] (setting [12]), 0.07 µM; in assay [5] (setting [13]), 0.25 µM; in assay [6] (setting [14]), 0.2 µM. Besides, the IC50 was determined as 0.2 µM in assay [7] (setting [15]), 45 nM in [8] and 18 nM in assay [9].
Regarding `CCOC(=O)N1CCC(Nc2nc(N[C@H]3CC[C@H](N)CC3)nc3c2ncn3C2CCCC2)CC1` [compound 93, trans-4-[2-(4-Amino-cyclohexylamino)-9-cyclopentyl-9H-purin-6-ylamino]-piperidine-1-carboxylic acid ethyl ester dihydrochloride], the IC50 in assay [1] is 856 nM; in assay [2] (setting [10]), 0.25 µM; in assay [3] (setting [11]), 0.2 µM; in [4] (setting [12]), 0.07 µM; in assay [5] (setting [13]) it was 0.16 µM; in assay [6] (setting [14]), 0.26 µM. Further, the IC50 in assay [7] (setting [15]) amounted to 0.18 µM; in [8], 46 nM; in [9], 5 nM.
With `N[C@H]1CC[C@H](Nc2nc(NC3CCN(C(=O)OCc4ccc([N+](=O)[O-])cc4)CC3)c3ncn(C4CCCC4)c3n2)CC1` [compound 94, trans-4-[2-(4-Amino-cyclohexylamino)-9-cyclopentyl-9H-purin-6-ylamino]-piperidine-1-carboxylic acid 4-nitro-benzyl ester dihydrochloride], the 50% inhibitory concentration (IC50) in [1] was 827 nM; in [2] (setting [10]) it was 0.14 µM; in assay [3] (setting [11]) it was 0.14 µM; in assay [4] (setting [12]), 0.06 µM; in assay [5] (setting [13]), 0.18 µM; in [6] (setting [14]), 0.13 µM. In addition, the values for the IC50 in assay [7] (setting [15]), in assay [8] and in assay [9] were 0.07 µM, 27 nM and 69 nM, respectively.
As for `C=CCOC(=O)N1CCC(Nc2nc(N[C@H]3CC[C@H](N)CC3)nc3c2ncn3C2CCCC2)CC1` [compound 95, trans-4-[2-(4-Amino-cyclohexylamino)-9-cyclopentyl-9H-purin-6-ylamino]-piperidine-1-carboxylic acid allyl ester dihydrochloride], the IC50 in assay [1] turned out to be 526 nM; in [2] (setting [10]), 0.24 µM; in assay [3] (setting [11]), 0.2 µM; in [4] (setting [12]), 0.06 µM; in assay [5] (setting [13]), 0.18 µM; in [6] (setting [14]), 0.21 µM. The IC50 in assay [7] (setting [15]) was found to be 0.1 µM; in assay [8] it was 75 nM; in [9], 23 nM.
As to `N[C@H]1CC[C@H](Nc2nc(NC3CCN(C(=O)Oc4ccccc4[N+](=O)[O-])CC3)c3ncn(C4CCCC4)c3n2)CC1` [compound 99, trans-4-[2-(4-Amino-cyclohexylamino)-9-cyclopentyl-9H-purin-6-ylamino]-piperidine-1-carboxylic acid 2-nitro-phenyl ester dihydrochloride], the IC50 in [1] is 1520 nM; in assay [2] (MDA-MB-435, read-out: MB-435 Breast (IC50 µM)) it was 0.12 µM; in [3] (NCI-H460, read-out: H-460 Lung (IC50 µM)), 0.16 µM; in assay [4] (HL-60, read-out: HL-60 Leuk. (IC50 µM)), below 0.02 µM; in assay [5], 0.11 µM; in [6] (PC-3, read-out: PC-3 Prostate (IC50 µM)) it was 0.2 µM. Further, the concentration for half-maximal inhibition (IC50) in assay [7] (COLO 205, read-out: Colo-205 Colon (IC50 µM)) amounted to 0.05 µM; in [8], 33 nM; in [9], 9 nM.
For `C=CCCOC(=O)N1CCC(Nc2nc(N[C@H]3CC[C@H](N)CC3)nc3c2ncn3C2CCCC2)CC1` [compound 100, trans-4-[2-(4-Amino-cyclohexylamino)-9-cyclopentyl-9H-purin-6-ylamino]-piperidine-1-carboxylic acid but-3-enyl ester dihydrochloride], the half-maximal inhibitory concentration (IC50) came to 0.25 µM in assay [2] (setting [10]); 0.17 µM in assay [3] (setting [11]); 0.05 µM in assay [4] (setting [12]); 0.19 µM in assay [5] (setting [13]); 0.22 µM in assay [6] (setting [14]); 0.11 µM in assay [7] (setting [15]). The IC50 stood at 60 nM in assay [8] and 50 nM in assay [9].
Turning to `C#CCOC(=O)N1CCC(Nc2nc(N[C@H]3CC[C@H](N)CC3)nc3c2ncn3C2CCCC2)CC1` [compound 102, trans-4-[2-(4-Amino-cyclohexylamino)-9-cyclopentyl-9H-purin-6-ylamino]-piperidine-1-carboxylic acid prop-2-ynyl ester dihydrochloride], the IC50 in assay [1] was 926 nM; in assay [2] (setting [10]), 0.19 µM; in assay [3] (setting [11]) it was 0.2 µM; in assay [4] (setting [12]), below 0.02 µM; in assay [5] (setting [13]), 0.11 µM; in assay [6] (setting [14]) it was 0.14 µM. Also, the IC50 in [7] (setting [15]) amounted to 0.14 µM; in assay [8] it was 31 nM; in [9], 42 nM.
`N[C@H]1CC[C@H](Nc2nc(NC3CCN(S(=O)(=O)c4ccc([N+](=O)[O-])cc4)CC3)c3ncn(C4CCCC4)c3n2)CC1` [compound 120, trans-N^2-(4-Amino-cyclohexyl)-9-cyclopentyl-N^6-[1-(4-nitro-benzenesulfonyl)-piperidin-4-yl]-9H-purine-2,6-diamine dihydrochloride]: the IC50 was 0.2 µM in assay [2] (setting [10]); 0.27 µM in assay [3] (setting [11]); below 0.02 µM in [4] (setting [12]); 0.19 µM in [5] (setting [13]); 0.22 µM in assay [6] (setting [14]); 0.1 µM in [7] (setting [15]).
For the compound `N[C@H]1CC[C@H](Nc2nc(NC3CCN(S(=O)(=O)c4cccc5ccccc45)CC3)c3ncn(C4CCCC4)c3n2)CC1` [compound 123, trans-N^2-(4-Amino-cyclohexyl)-9-cyclopentyl-N^6-[1-(naphthalene-1-sulfonyl)-piperidin-4-yl]-9H-purine-2,6-diamine dihydrochloride], the IC50 in [1] was 49 nM; in assay [2] (setting [10]), 0.26 µM; in [3] (setting [11]), 0.29 µM; in assay [4] (setting [12]), 0.15 µM; in [5] (setting [13]), 0.22 µM; in assay [6] (setting [14]), 0.2 µM. Further, the IC50 in assay [7] (setting [15]) turned out to be 0.07 µM; in assay [8], 62 nM; in assay [9] it was 54 nM.
As for `N[C@H]1CC[C@H](Nc2nc(NC3CCN(C(=O)Nc4ccc(F)cc4F)CC3)c3ncn(C4CCCC4)c3n2)CC1` [compound 166, trans-4-[2-(4-Amino-cyclohexylamino)-9-cyclopentyl-9H-purin-6-ylamino]-piperidine-1-carboxylic acid (2,4-difluoro-phenyl)-amide dihydrochloride], the IC50 turned out to be 0.03 µM in assay [2] (setting [10]); 0.08 µM in assay [3] (setting [11]); 0.01 µM in assay [4] (setting [12]); 0.07 µM in assay [5] (setting [13]); 0.06 µM in [6] (setting [14]); 0.02 µM in assay [7] (setting [15]).
